According to PMC6199744, “Development of Chemical Proteomics for the Folateome and Analysis of the Kinetoplastid Folateome” (ACS Infectious Diseases, 2018):

Key:
[1] = test system: MTHF complex (DHCH protein in humans); assay: Multitargeted bead mixture competition, HeLa cell extract; format: binding, human; conditions: bead mixture; HeLa cell extract
DHFR-TS = DHFR-TS (Trypanosoma brucei brucei, UniProt Q27783); assay: Individual bead pull down with competing free ligand; conditions: competing free ligand 100 μM; bead = immobilized compound of the row; T. brucei lysate; read-out: % Inhibition of protein binding to bead, DHFR-TS, T. brucei
Sequence of DHFR-TS (Q27783 whole entry): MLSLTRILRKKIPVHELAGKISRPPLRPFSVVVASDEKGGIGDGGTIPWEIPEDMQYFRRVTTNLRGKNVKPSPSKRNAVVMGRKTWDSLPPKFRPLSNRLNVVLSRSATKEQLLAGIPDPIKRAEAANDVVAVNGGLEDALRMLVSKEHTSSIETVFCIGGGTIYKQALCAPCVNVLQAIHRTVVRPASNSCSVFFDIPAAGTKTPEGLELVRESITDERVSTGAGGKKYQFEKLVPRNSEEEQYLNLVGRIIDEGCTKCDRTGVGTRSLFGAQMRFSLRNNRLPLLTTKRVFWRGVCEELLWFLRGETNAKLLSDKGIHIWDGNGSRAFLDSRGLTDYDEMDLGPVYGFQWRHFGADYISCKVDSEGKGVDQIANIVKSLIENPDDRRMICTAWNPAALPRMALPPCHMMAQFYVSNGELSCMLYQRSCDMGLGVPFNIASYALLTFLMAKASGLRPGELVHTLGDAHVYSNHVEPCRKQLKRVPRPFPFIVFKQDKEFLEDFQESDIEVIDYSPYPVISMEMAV
From the text: (§1) Antifolate compounds were immobilized onto NHS-activated sepharose beads/reverse sepharose beads through amide coupling via either an amino or carboxyl group (see Figure 3). The reaction was monitored by observing the disappearance of test compound by LCMS, after which the unreacted coupling sites were capped with NHS-acetate or aminoethanol.
(§2) Folate metabolizing enzymes are not highly abundant proteins,[19],[20] potentially making their identification by MS difficult. Beads will not only pull down the low abundant high affinity binders but also attract highly abundant, low affinity binders or so-called nonspecific binders. Sometimes, the nonspecific high abundant proteins can mask true binders. The target identification approach used in this study overcomes this issue by performing competition studies. Various concentrations of the free unmodified inhibitor (test compound) were preincubated with the lysate, prior to addition of the beads derivatized with immobilized compounds. Following washing of the bound proteins from the beads and tryptic digest, the peptides were labeled using the TMTs and then pooled. Differences in peptide abundance were analyzed by fragmentation of the isotope-coded isobaric tags in the MS/MS spectra (Figure 5).[9],[11],[12],[21] While the competition experiments with test compound confirm specific binding, it is also possible that some proteins will have a stronger binding interaction with the derivatized beads than the competing test compound, due to subtle differences in the interactions between the immobilized compound and the test compound with the target protein.

PTR-1 = PTR-1 (Trypanosoma brucei brucei, UniProt O76290); assay: as above; conditions: competing free ligand 100 μM; bead = immobilized compound of the row; T. brucei lysate; read-out: % Inhibition of protein binding to bead, PTR-1, T. brucei
Sequence of PTR-1 (O76290 entry or part of it): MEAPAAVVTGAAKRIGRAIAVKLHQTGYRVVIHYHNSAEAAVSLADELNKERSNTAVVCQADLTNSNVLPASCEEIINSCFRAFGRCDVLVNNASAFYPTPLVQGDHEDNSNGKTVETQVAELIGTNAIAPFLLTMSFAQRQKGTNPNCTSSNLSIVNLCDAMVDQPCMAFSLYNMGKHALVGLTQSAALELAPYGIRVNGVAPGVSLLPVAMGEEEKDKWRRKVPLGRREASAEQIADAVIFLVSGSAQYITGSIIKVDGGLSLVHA
From the text: as §1, §2

TB927.7.1340 = assay: Multitargeted bead mixture competition; format: binding; conditions: free ligand 100 μM, T. brucei lysate
[2] = test system: ACETYLTRANSFERASE, PUTATIVE (Tb427.08.3310); assay: Multitargeted bead mixture competition; format: binding; conditions: free ligand 100 μM, T. brucei lysate
[3] = test system: HYPOTHETICAL PROTEIN, CONSERVED (Tb427.10.6100); assay: Multitargeted bead mixture competition; format: binding; conditions: free ligand 100 μM, T. brucei lysate
[4] = test system: PROTEIN KINASE, PUTATIVE (Tb427.03.1570); assay: Multitargeted bead mixture competition; format: binding; conditions: free ligand 100 μM, T. brucei lysate

Structure (SMILES)	inhibition, all subunits of the MTHF complex [1] [%]	inhibition at 100 µM (DHFR-TS) [%]	inhibition at 100 µM (PTR-1) [%]	percentage of competition from bead binding (TB927.7.1340) [%]	percentage of competition from bead binding [2] [%]	percentage of competition from bead binding [3] [%]	percentage of competition from bead binding [4] [%]
CCCCCCOc1ccc(Cc2cnc(N)nc2N)cc1 [compound 1]	> 70						
Nc1nc2cccc(-c3ccccc3)c2n1Cc1ccc(Cl)c(Cl)c1 [compound 3]		< 50	< 50	40	37	67	-2
